Test results: paper PMC9050674, “Structure-based inhibitor design for reshaping bacterial morphology” (Communications Biology, 2022)
Where “and” joins values, the source holds several entries; their conditions need not be identical. Equal entries are not always repeated.

Tests used:
[1] = biological target: Pgp3 (Campylobacter jejuni, UniProt Q0P921); experiment: biochemical; set-up: species or system C. jejuni
Protocol: Because DABCYL/FITC is a typical FRET quencher–fluorophore pair, an increase in fluorescent signals can be directly detected when it is processed by Pgp3 (Tang et al., 2013). The kinetic parameters (kcat = 0.0209 ± 0.0006 s^−1 and KM = 6.6 ± 0.7 µM) for the substrate were obtained by fitting the data to the Michaelis-Menten equation (Supplementary Fig. 8a).
The enzymatic assay for Pgp3 activity was determined using a fluorescein isothiocyanate (FITC) and 4′-([4′-(Dimethylamino)phenyl]-azo)-benzoic acid (DABCYL) pair for FRET. […] The excitation and emission spectra were set at 495 nm and 525 nm, respectively. Pgp3 (0.1 μM) in 20 mM HEPES pH 7.5, 200 mM NaCl, and 0.4 μM of zinc was used in this assay. The reaction was initiated by adding 3 μL of 0.015–2 mM substrate (final 1.56–200 μM) in the total volume of 30 μL of the reaction mixture. Initial velocities were calculated using slopes of fluorescence signal intensity in 3 min after the initiation of the reaction. In order to elucidate the inhibition mechanism of BMK-S301, initial velocities with various concentrations of substrates were measured in the presence of 40 μM BMK-S301. […] The same method was used for the determination of the IC50 values for inhibitors. Inhibitors in each concentration were pre-incubated with 0.1 μM of Pgp3 for 1 h on ice, and initial velocities were determined for 0.1, 10, 50, 100, 200, 500, and 1000 μM of each inhibitor in reaction with 10 μM of substrate. The IC50 values were calculated using GraphPad Prism 7.

[2] = test system: C. jejuni ATCC 33560 WT; experiment: Cell morphology change monitored by TEM; assay type: cell-based, Campylobacter jejuni; details: 37 °C, 24 h, KL-L9P used for improved permeability
Excerpt: Next, we investigated whether our inhibitors could transform C. jejuni from the helical- to curved-rod morphology on exposure to the inhibitors (Fig. 5). […] To investigate the effect of inhibitors on the morphology of C. jejuni cells, we exposed the cells to the inhibitors and checked whether the morphology could be altered.
Cell-morphology change of C. jejuni upon inhibitor treatment was monitored, as described previously with modifications. Briefly, overnight cultures of C. jejuni were harvested from MH agar plates and suspended in MH broth to approximately 1 × 10^6 colony-forming unit (CFU)/mL. A total of 500 μL of the diluted bacterial culture was added into each well of a 24-well plate with 5 μL of two-fold serial dilutions of inhibitor. For the control strain with no inhibitor, the same volume of dilution buffer (20 mM Tris-HCl pH 8.0 and 200 mM NaCl) was used. The plate was incubated under a micro-aerobic condition at 37 °C for 24 h in the static condition. After incubation, 10 μL of the bacterial cultures was placed on formvar/carbon-coated copper grids (200 mesh) and negatively stained with 2% uranyl acetate for 2 s.

[3] = test system: C. jejuni ATCC 33560 WT; assay type: cell-based, Campylobacter jejuni
Protocol: Invasion assay was performed as described previously with modifications. Briefly, prior to bacterial infection, a monolayer of 1 × 10^5 Caco-2 cells was prepared in a 24-well tissue culture plate and incubated in DMEM with 10% FBS, and 0.6% CMC at 37 °C under 5% CO2. The cultures of wild-type C. jejuni strain with or without BMK-S301 (100 μM) and KL-L9P (1 μM) were prepared, as described above (TEM). The bacterial suspensions were diluted in DMEM with 10% FBS and 0.6% CMC, and then added onto the cell monolayer at a multiplicity of infection (MOI) of 100. After a 3 h incubation, the cells were incubated with 250 μg/mL of gentamicin in the fresh pre-warmed medium for 2 h to kill any extracellular bacteria. The wells were washed three times with 1 × PBS, and treated with 0.1% Triton X-100 in 1 × PBS for 15 min. After dilution with 1 × PBS, the suspensions were plated on MH agar to enumerate the CFU. […]

[4] = biological target: Pgp3 WT (Campylobacter jejuni, UniProt Q0P921); experiment: Isothermal-titration calorimetry (ITC) with Pgp3 WT; assay type: binding, C. jejuni
Protocol: The gene encoding the amino-acid sequence of Glu21–Gln273 of Pgp3 from C. jejuni (strain ATCC 33560) was cloned into the expression vector pET-21a (Novagen) producing the recombinant wild-type Pgp3 protein with the C-terminal His6-tag ([…]). The protein expression and purification were conducted according to previously described methods with exception. The HiTrap chelating HP (GE Healthcare) column was washed with the lysis buffer containing 60 mM imidazole and the protein was eluted with a linear gradient from 100 to 500 mM imidazole. The protein was further purified by gel filtration on a HiLoad 16/60 Superdex 200 prep-grade column (GE Healthcare), which was previously equilibrated with 20 mM Tris-HCl pH 8.0 and 200 mM NaCl. The fractions containing the Pgp3 protein were pooled and concentrated to 15 mg mL^−1 for crystallization. The variants of Pgp3 (S169A, R195A, H216A, and H247A) were generated by site-directed mutagenesis using primer sets in Supplementary Table 1 and were purified as described for the WT Pgp3.
Using a micro-syringe, 2.5 μL of each inhibitor (2.25 mM) was added at intervals of 200 s to the Pgp3 solution in the cell with gentle stirring (125 rpm). The same ITC condition was applied to evaluate the KD values of BMK-S101 for each Pgp3 variant. All data were fitted to the single-binding-site model. Fitted curves were generated using GraphPad Prism 7. Data are mean ± SEM from triplicate experiments and the ITC thermograms are representative of triplicate experiments.

[5] = test system: Caco-2 epithelial cells; experiment: Cytotoxicity assay (LDH release); assay type: cell-based; details: 3 h; for Cytotoxicity test (LDH release, Triton X-100 lysis = 100%): single replicates, source data Fig. 5c
Protocol: To examine the cytotoxicity of BMK-[…], the lactate dehydrogenase (LDH) activity was measured using Cytotoxicity Detection Kit^PLUS (LDH; Roche, Switzerland) according to the manufacturer's instructions. Briefly, the monolayers of Caco-2 cells were prepared in a 96 well tissue culture plate and incubated in Dulbecco's modified-eagle medium (DMEM; ATCC) with 10% fetal bovine serum (FBS; Invitrogen), and 0.6% carboxymethylcellulose (CMC) at 37 °C under 5% CO2. […] The 2% Triton X-100 was used to release all LDH of Caco-2 cell as a positive control.

Chain of Pgp3 WT (Q0P921 entry or part of it): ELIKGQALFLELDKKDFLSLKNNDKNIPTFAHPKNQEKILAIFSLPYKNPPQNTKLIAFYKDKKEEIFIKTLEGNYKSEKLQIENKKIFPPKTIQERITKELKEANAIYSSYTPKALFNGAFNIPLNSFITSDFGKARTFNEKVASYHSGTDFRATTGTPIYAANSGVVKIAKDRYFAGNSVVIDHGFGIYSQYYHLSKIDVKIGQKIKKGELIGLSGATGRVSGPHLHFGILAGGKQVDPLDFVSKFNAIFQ
Chain of Pgp3 (Q0P921 entry or part of it): as above

In the case of `CC(=O)N[C@@H](Cc1ccc(S(N)(=O)=O)cc1)C(=O)N[C@H](C)C(=O)NO` [BMK-S301], the IC50 [1] is reported as 22 ± 1.4 µM, the “minimum concentration causing morphological changes (helical to curved-rod)” value [2] is reported as 25 μM and the “invasion ability of WT C. jejuni” value ([3]; 100 μM BMK-S301 and 1 μM KL-L9P, high-viscosity medium, 3 h after infection) is reported as “decreased compared to that of the untreated C. jejuni”. For the same molecule, the “Invasion assay (intracellular bacteria, relative)” value ([3]; BMK-S0301 100 μM with MAP 1 μM, single replicates, source data Fig. 5d) was 90.1581 and 72.6517 and 79.6542 and 66.8677 and 113.675 and 78.0123 and 88.3559 and 93.1319 and 83.5799, the Kd [4] was 3.5 ± 0.2 µM and the “Cytotoxicity test (LDH release, Triton X-100 lysis = 100%)” value ([5]; 10 μM) was 0% (5×) and 4.598%. The “Cytotoxicity test (LDH release, Triton X-100 lysis = 100%)” value ([5]; 100 μM) was 2.466% and 0% (5×) and the “toxicity to Caco-2 cells” value ([5]; LDH release, 10 or 100 μM) was “not toxic”.
